Experimental data from patent US8937096B2, “Use of benzo-fused heterocyle sulfamide derivatives for the treatment of mania and bipolar disorder” (priority 2005, dated 2015).
Read-outs that look alike come from different tables or passages of the source.

What was measured:
Wistar rats = assay: Chronic Mild Stress Model (Chronic); assay type: in vivo, rat
Description: In the chronic mild stress (CMS) model rats subjected to a variety of mild stressors for a prolonged period of time show, among other behavioral, biochemical and physiological impairments, a substantial decrease in their responsiveness to rewarding stimuli. This deficit is usually monitored by a decrease in the consumption of the 1% sucrose solution, but can also be seen in other tests, such as place preference conditioning or intracranial self-stimulation. Since the subsensitivity to reward appears to reflect anhedonia (inability to experience pleasure), which is a core symptom of major depressive disorders, the CMS procedure may serve as a suitable research tool in studies into the mechanisms of antidepressant action.
Male Wistar rats were brought into the laboratory two months before the start of the experiment. Except as described below, the animals were singly housed with food and water freely available, and were maintained on a 12-h light/dark and in a constant temperature (22±2° C.) and humidity (50±5%) conditions.
The animals were first trained to consume a 1% sucrose solution; training consisted of eight 1 h baseline tests in which sucrose was presented, in the home cage, following 14 h food and water deprivation; the sucrose intake was measured by weighing pre-weighed bottles containing the sucrose solution, at the end of the test. Subsequently, sucrose consumption was monitored, under similar conditions, at weekly intervals throughout the whole experiment.
On the basis of their sucrose intakes in the final baseline test, the animals were divided into two matched groups. One group of animals was subjected to the chronic mild stress procedure for a period of 7 consecutive weeks. […]
All results obtained in this study were analyzed by multiple analyses of variance with three between-subjects factors (stress/control, drug treatments and successive sucrose tests). […]

CH3/HeJ mice = assay: Tail Suspension Test (Acute); assay type: in vivo, mouse; conditions: for ED50: Mus musculus, po, 7 min; for Immobility Emax % of C / Mobility Emax % of C: 7-min session
Description: In the tail suspension test (TST) for evaluating compounds for anti-depressant activity, mice are suspended by their tails to a metal or plastic rod using clip or scotch tape. The test is usually quite short, 5-7 min, and the amount of time the mice spend immobile is recorded either manually or with an automated device. Agents which have antidepressant activity, decrease the duration of immobility of mice in this test.
The basic apparatus for the tail suspension assay consisted of a yellow plastic chamber (91×45×10 cm) divided for four arenas 25, 20, 20 and 25 cm wide separated by yellow plastic walls 0.75 cm thick. Mice were suspended by their tails using a rubber clip (7 cm long) attached to the plastic rod that was placed on the top of a testing chamber half way through its deep dimension. Each experimental session was videotaped and analyzed for four animals in the real time by computer software (“Depression Scan” Clever Sys Inc.). The computer justification of immobility was calibrated with the use of animals dosed with lorazepam while justification of movement was calibrated with the high dose of desipramine treated animals. […] The settings were adjusted separately for dark (CH3/HeJ and C57BI/6J strains) and white mice (Balb/cJ and A/J strains). A yellow background was used for dark mice and a blue background was used to record movements of white mice.
The ability of a test compound to decrease the duration of immobility, or increase mobility was measured using the TST procedure described above.
Data were analyzed using GraphPad Prism software (GraphPad Software, Inc. San Diego, Calif.). For the comparison of the effect of different doses for various drugs on immobility in the TST one-way analyses of variance (ANOVA) were used followed by Dunnett's multiple comparison test. […] The ED50 and Emax values were compared using two-way ANOVA and Bonferroni post-hoc test.
Positive controls included duloxetine (DLX), venlafaxine (VLX) and desipramine (DMI) which were dissolved in 0.5% methylcellulose and lorazepam (LOR) which was suspended in 0.5% of methylcellulose in water by sonication. All drugs and vehicles were administered orally (p.o.) by gavage in a volume of 10 mL/kg.
The mice were ordered 5 weeks old and at the beginning of experiment their weight was 20±5 g. Animals were housed in groups of four in plastic cages at an ambient temperature of 21° C. to 23° C. with an automated 12/12 hours light/dark cycle and access to water and a commercial rodent food ad libitum.
Each experiment consisted of seven treatment groups with four animals per group. A total of 28 animals per experiment were used. Every two consecutive experiments (1 & 2, 3 & 4, 5 & 6 and 7 & 8) were exact replicas of each other. […] One treatment group of four animals in each experiment was a vehicle treated group. In addition to the vehicle treated group, the effects of DMI at 6 mg/kg, 12 mg/kg, 30 mg/kg, 60 mg/kg and 120 mg/kg and LOR at 5 mg/kg were tested in experiments 1 and 2. […] In experiments 5 and 6 the effects of DLX at 6 mg/kg, 12 mg/kg, 30 mg/kg, 60 mg/kg, 120 mg/kg and LOR at 5 mg/kg were tested.

COc1ccc(C(CN(C)C)C2(O)CCCCC2)cc1 (centres unmarked) [Venlafaxine, venlafaxine, reference compound]
treatment time after which increases in sucrose intake in stressed animals reached statistical significance vs Week 0 (Wistar rats; stressed animals, i.p. once daily): four weeks
ED50 (CH3/HeJ mice; read-out: Immobility ED50): 25 mg/kg
ED50 (CH3/HeJ mice; read-out: Mobility ED50): 21.1 mg/kg
Immobility Emax % of C (CH3/HeJ mice; p.o., CH3/HeJ mice): 63.7 % of C
Mobility Emax % of C (CH3/HeJ mice; p.o., CH3/HeJ mice): 412.6 % of C

NS(=O)(=O)NC[C@H]1COc2cc(Cl)ccc2O1 [Compound #8, (2S)-(−)-N-(6-Chloro-2,3-dihydro-benzo[1,4]dioxin-2-ylmethyl)-sulfamide]
activity in the CMS model of depression (Wistar rats; 12, 30 or 60 mg/kg i.p.): inactive in the CMS model of depression
doses at which effects were statistically significant vs vehicle (CH3/HeJ mice; p.o., CH3/HeJ mice): 12 mg/kg, 60 mg/kg, and 120 mg/kg
Immobility Emax % of C (CH3/HeJ mice; p.o., CH3/HeJ mice): 22.2±6.1 % of C
Mobility Emax % of C (CH3/HeJ mice; p.o., CH3/HeJ mice): 95.6 % of C
Immobility Emax % of C (CH3/HeJ mice; p.o., CH3/HeJ mice, listed as Cmpd #8): 22.2 % of C
immobility time and mobility time (CH3/HeJ mice; p.o., CH3/HeJ mice, 7-min testing session): decreased immobility time and increased mobility time
